Patent publication US11197859B2 (AUTIFONY THERAPEUTICS LIMITED, priority 2010, dated 2021)

What was measured:
Adult male CD rats = assay: Assessment of physiological sleep in the rat (EEG/EMG telemetry); assay type: in vivo; conditions: 60 mg/kg oral at CT18, 5 hour period following dosing
Method: Adult male CD rats (C. River, Italy) were implanted with telemetric probes and housed singly, under controlled condition (temperature 18-20° C.; relative humidity 45-50%; 12 hours light-dark cycle, lights on at 3 p.m., designated Circadian Time (CT) 0) with free access to food and water.
Reference Example RE1 was formulated in tween (0.1% v/v) and HPMC (0.5% v/v) and was administered orally at doses of 10, 30 and 60 mg/kg (vol. 2 ml/kg) at CT18 (6 hours before lights on). The electroencephalogram (EEG) and electromyogram (EMG) were recorded continuously, starting immediately after administration, using telemetric apparatus (DSI Dataquest® A.R.T. system). EEG and EMG recordings were analysed to evaluate sleep patterns using sleepSign® (Kissei Comtec Co.). Statistical analyses (1-way Anova followed by a Dunnett's test) was performed using Statistica-8 software.

[1] = molecular target: T1, human Kv3.2 channels (hKv3.2) (Homo sapiens, UniProt Q96PR1); assay: IonWorks Quattro electrophysiology, hKv3.2 currents, activation time constant (Tauact); assay type: cell-based; conditions: hKv3.2, -15 mV pulse; compound 6.25 μM (concentration giving ~0.3 nA current)
T1 construct: expressed in transfected cells
T1 sequence (Q96PR1 1-638): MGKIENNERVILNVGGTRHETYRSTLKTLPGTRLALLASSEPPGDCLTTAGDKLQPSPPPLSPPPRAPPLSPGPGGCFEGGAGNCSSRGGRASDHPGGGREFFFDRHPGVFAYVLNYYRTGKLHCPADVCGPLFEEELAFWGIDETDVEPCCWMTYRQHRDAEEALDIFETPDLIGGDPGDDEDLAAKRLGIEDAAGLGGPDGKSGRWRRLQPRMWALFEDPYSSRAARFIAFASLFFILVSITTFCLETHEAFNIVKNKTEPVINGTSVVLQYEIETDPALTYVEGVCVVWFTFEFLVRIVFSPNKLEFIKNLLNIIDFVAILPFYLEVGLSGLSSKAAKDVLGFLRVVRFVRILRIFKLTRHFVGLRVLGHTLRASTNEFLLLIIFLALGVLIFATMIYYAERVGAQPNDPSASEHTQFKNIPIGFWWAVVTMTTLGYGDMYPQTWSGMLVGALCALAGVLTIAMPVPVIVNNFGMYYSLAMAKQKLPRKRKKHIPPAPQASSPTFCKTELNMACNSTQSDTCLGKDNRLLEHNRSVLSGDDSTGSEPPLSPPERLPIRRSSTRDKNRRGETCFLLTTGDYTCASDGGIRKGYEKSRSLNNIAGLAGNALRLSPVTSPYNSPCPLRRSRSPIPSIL
Method: The ability of the compounds of the disclosure to modulate the voltage-gated potassium channel subtypes Kv3.2/3.1 may be determined using the following assay.
To assess compound effects on human Kv3.2 channels (hKv3.2), a stable cell line expressing hKv3.2 was created by transfecting Chinese Hamster Ovary (CHO)-K1 cells with a pCIH5-hKv3.2 vector. Cells were cultured in DMEM/F12 medium supplemented by 10% Foetal Bovine Serum, 1× non-essential amino acids (Invitrogen) and 500 ug/ml of Hygromycin-B (Invitrogen). Cells were grown and maintained at 37° C. in a humidified environment containing 5% CO2 in air.
The day of the experiment, cells were removed from the incubator and the culture medium removed. Cells were washed with 5 ml of Dulbecco's PBS (DPBS) calcium and magnesium free and detached by the addition of 3 ml Versene (Invitrogen, Italy) followed by a brief incubation at 37° C. for 5 minutes. The flask was tapped to dislodge cells and 10 ml of DPBS containing calcium and magnesium was added to prepare a cell suspension. The cell suspension was then placed into a 15 ml centrifuge tube and centrifuged for 2 min at 1200 rpm. After centrifugation, the supernatant was removed and the cell pellet re-suspended in 4 ml of DPBS containing calcium and magnesium using a 5 ml pipette to break up the pellet. Cell suspension volume was then corrected to give a cell concentration for the assay of approximately 3 million cells per ml.
Experiments were conducted at room temperature using IonWorks Quattro™ planar array electrophysiology technology (Molecular Devices Corp.) with PatchPlate™ PPC. Stimulation protocols and data acquisition were carried out using a microcomputer (Dell Pentium 4). Planar electrode hole resistances(Rp) were determined by applying a 10 mV voltage step across each well. These measurements were performed before cell addition. […] Following this, amphotericin-B solution was added to the intracellular face of the electrode to achieve intracellular access. Cells were held at −70 mV. Leak subtraction was conducted in all experiments by applying 50 ms hyperpolarizing (10 mV) prepulses to evoke leak currents followed by a 20 ms period at the holding potential before test pulses. From the holding potential of −70 mV, a first test pulse to −15 mV was applied for 100 ms and following a further 100 ms at −70 mV, a second pulse to 40 mV was applied for 50 ms. Cells were then maintained for a further 100 ms at −100 mV and then a voltage ramp from −100 mV to 40 mV was applied over 200 ms. In all experiments, the test pulses protocol was performed in the absence (pre-read) and presence (post-read) of the test compound. Pre- and post-reads were separated by the compound addition followed by a 3 minute incubation.
The intracellular solution contained the following (in mM): K-gluconate 100, KCl 54, MgCl2 3.2, HEPES 5, adjusted to pH 7.3 with KOH. Amphotericin-B solution was prepared as 50 mg/ml stock solution in DMSO and diluted to a final working concentration of 0.1 mg/ml in intracellular solution.
The final assay dilution was 200 and the final compound concentrations were in the range 50 μM to 50 nM.
The recordings were analysed and filtered using both seal resistance (>20 MΩ) and peak current amplitude (>500 pA at the voltage step of 40 mV) in the absence of compound to eliminate unsuitable cells from further analysis. Kv3 channel-mediated outward currents were measured determined from the mean amplitude of the current over the final 10 ms of the −15 mV voltage pulse minus the mean baseline current at −70 mV over a 10 ms period just prior to the −15 mV step. This Kv3 channel currents following addition of the test compound were then compared with the currents recorded prior to compound addition. […] The normalised data were analysed using ActivityBase or Excel software.

SMILES: CC[C@H]1NC(=O)N(c2ccc(Oc3ccc(C)c(OC)c3)nc2)C1=O [RE1, (5R)-5-ethyl-3-(6-{[4-methyl-3-(methyloxy)phenyl]oxy}-3-pyridinyl)-2,4-imidazolidinedione]
- time spent in REM sleep (Adult male CD rats): did not affect
- time spent in non-REM sleep (Adult male CD rats; p<0.05, n=8): significantly increased
- total sleep time (Adult male CD rats; p<0.05, n=8): significantly increased
- Tauact mean [1]: 9.9 ms
